Where no end group is shown, it is not given here.
Key:
[1] = tested on: Gram-negative bacteria; settings: for GM MIC: geometric mean of MICs, 9 Gram-negative strains (Table 2); for TI, Gram-negative bacteria: therapeutic index TI = MHC/GM MIC
How it was run: (§1)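 MIC is the lowest peptide concentration giving 95% growth inhibition, read at 492 nm after 24 h incubation at 37°C. Peptides were serially diluted in 0.2% BSA and added to mid-logarithmic cells at 0.5–1 × 10^6 CFU mL^–1 in MHB, following a modified NCCLS method, with more than 3 repeats.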

[2] = tested on: Gram-positive bacteria; settings: for GM MIC: geometric mean of MICs, 7 Gram-positive strains (Table 2); for TI, Gram-positive bacteria: therapeutic index TI = MHC/GM MIC
How it was run: as §1

[3] = tested on: Listeria monocytogenes CGMCC 1.1075; type: cell-based; settings: CGMCC 1.1075, 24 h
How it was run: (§2)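 Broth microdilution in MHB with mid-log bacteria at 0.5–1 × 10^6 CFU/mL and peptides serially diluted in 0.2% BSA, 24 h at 37 °C. MIC is lowest concentration giving 95% growth inhibition by A492; MBC is lowest concentration killing >99.9% on overnight agar subculture.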

[4] = tested on: Gram-positive bacteria; settings: geometric mean of MBCs, 7 Gram-positive strains (Table 2)
[5] = tested on: E. coli UB1005; type: cell-based, Escherichia coli; settings: UB1005, 24 h
How it was run: as §2

[6] = tested on: E. coli O78; type: cell-based, Escherichia coli; settings: O78, 24 h
How it was run: as §2

[7] = tested on: E. coli 25922; type: cell-based, Escherichia coli; settings: 25922, 24 h
How it was run: as §2

[8] = tested on: S. aureus 29213; assay: Salt sensitivity assay (MIC); type: cell-based, Staphylococcus aureus; settings: for MIC, FeCl3: 4 μM FeCl3; for MIC, NH4Cl: 6 μM NH4Cl; for MIC, ZnCl2: 8 μM ZnCl2; for MIC, MgCl2: 1 mM MgCl2; for MIC, CaCl2: 2 mM CaCl2; for MIC, KCl: 4.5 mM KCl; for MIC, NaCl: 150 mM NaCl; for MIC, Control: no added salt, three independent assays
How it was run: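 Physiological salts (150 mM NaCl, 4.5 mM KCl, 6 μM NH4Cl, 8 μM ZnCl2, 1 mM MgCl2, 2mM CaCl2, 4 μM FeCl3) added to MHB. Bacteria at 0.5–1 × 10^6 CFU/mL exposed to serially diluted peptides for 24 h at 37°C. MIC read as lowest peptide concentration giving 95% growth inhibition by absorbance at 492 nm.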

[9] = tested on: MRSA 43300; type: cell-based, methicillin-resistant S. aureus; settings: 43300, 24 h
How it was run: as §2

[10] = tested on: E. faecalis 29212; type: cell-based, Enterococcus faecalis; settings: 29212, 24 h
How it was run: as §2

[11] = tested on: E. coli K99; settings: for MIC: MHB, 24 h 37°C, 95% growth inhibition
Description: (§3) The antimicrobial activities of the peptides were measured using a method adapted from the National Committee for Clinical Laboratory Standards (NCCLS) with some modifications ([Chou et al., 2016]). The specific procedure for these assays has been previously described. In brief, the bacterial cells were grown to a mid-logarithmic phase and diluted in MHB to an ultimate concentration of 0.5–1 × 10^6 CFU mL^–1. Subsequently, the peptides were consecutively diluted in a 0.2% BSA solution and then added to a bacterial solution in a 96-well plate at identical volumes. After incubation for 24 h at 37°C, the MICs were determined to be the lowest peptide concentration that inhibited 95% of the bacterial growth by monitoring the absorbance at 492 nm using a microplate reader. Subsequently, 50 μL of each incubation mixture was further transferred to agar plates and incubated overnight. […] Every assay was reproduced more than 3 times.

[12] = tested on: E. coli K88; settings: for MIC: MHB, 24 h 37°C, 95% growth inhibition; for MBC: value in brackets, >99.9% of cells killed
Description: as §3

[13] = tested on: S. aureus 29213; type: cell-based, Staphylococcus aureus; settings: 29213, 24 h
How it was run: as §2

[14] = tested on: S. aureus 25923; type: cell-based, Staphylococcus aureus; settings: 25923, 24 h
How it was run: as §2

[15] = tested on: E. coli ATCC 25922; assay: Salt sensitivity assay (MIC); type: cell-based, Escherichia coli; settings: for MIC, FeCl3: 4 μM FeCl3; for MIC, NH4Cl: 6 μM NH4Cl; for MIC, ZnCl2: 8 μM ZnCl2; for MIC, MgCl2: 1 mM MgCl2; for MIC, CaCl2: 2 mM CaCl2; for MIC, KCl: 4.5 mM KCl; for MIC, NaCl: 150 mM NaCl; for MIC, Control: no added salt, three independent assays
How it was run: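 Peptides diluted serially in 0.2% BSA solution were combined at identical volumes with mid-logarithmic E. coli ATCC 25922 in MHB (0.5–1 × 10^6 CFU mL^–1) in 96-well plates, with or without a physiological salt. Plates were incubated for 24 h at 37°C. MIC was the lowest concentration inhibiting 95% of growth, measured as absorbance at 492 nm on a microplate reader.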

[16] = tested on: S. epidermidis 12228; type: cell-based, Staphylococcus epidermidis; settings: 12228, 24 h
How it was run: as §2

[17] = tested on: S. typhimurium 7731; type: cell-based, Salmonella typhimurium; settings: 7731, 24 h
How it was run: as §2

[18] = tested on: S. typhimurium 14028; type: cell-based, Salmonella typhimurium; settings: 14028, 24 h
How it was run: as §2

[19] = tested on: B. subtilis 63501; type: cell-based, Bacillus subtilis; settings: 63501, 24 h
How it was run: as §2

[20] = tested on: all of the tested bacterial strains; assay: Geometric mean of MICs, all tested bacterial strains; type: cell-based; settings: for GM, All: geometric mean of MICs across all tested strains; for TI, All: therapeutic index TI = MHC/GM MIC
How it was run: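 Per strain, MIC came from absorbance at 492 nm after 24 h at 37°C (≥95% inhibition), using mid-log inoculum of 0.5–1 × 10^6 CFU mL^–1 in MHB and peptide diluted in 0.2% BSA. MBC (>99.9% killed) came from overnight agar plating, and values are geometric means across strains.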

[21] = tested on: S. pullorum 7913; type: cell-based, Salmonella pullorum; settings: 7913, 24 h
How it was run: as §2

[22] = tested on: P. aeruginosa 27853; type: cell-based, Pseudomonas aeruginosa; settings: 27853, 24 h
How it was run: as §2

[23] = tested on: Gram-negative bacteria; settings: geometric mean of MBCs, 9 Gram-negative strains (Table 2)

LLRLRRRLL-NH2 [L2]
GM MIC [1]: 21.77 µM | TI, Gram-negative bacteria [1]: 11.76 | GM MIC [2]: 52.50 µM | TI, Gram-positive bacteria [2]: 4.88 | MIC [3]: >64 µM | GM MBC [4]: 70.66 µM | MBC [5]: 32 µM | MIC [5]: 16 µM | MBC [6]: 16 µM | MIC [6]: 8 µM | MBC [7]: 16 µM | MIC [7]: 8 µM | MIC, FeCl3 [8]: > 64 µM | MIC, NH4Cl [8]: > 64 µM | MIC, ZnCl2 [8]: > 64 µM | MIC, MgCl2 [8]: > 64 µM | MIC, CaCl2 [8]: > 64 µM | MIC, KCl [8]: > 64 µM | MIC, NaCl [8]: > 64 µM | MIC, Control [8]: > 64 µM | MBC [9]: 64 µM | MIC [9]: 32 µM | MIC [10]: > 64 µM | MIC [11]: 8 µM | MBC ([11]; value in brackets, >99.9% of cells killed): 16 µM | MIC [12]: 16 µM | MBC [12]: 32 µM | MBC [13]: 128 µM | MIC [13]: 64 µM | MIC [14]: > 64 µM | MIC, FeCl3 [15]: 8 µM | MIC, NH4Cl [15]: 8 µM | MIC, ZnCl2 [15]: 8 µM | MIC, MgCl2 [15]: 16 µM | MIC, CaCl2 [15]: 32 µM | MIC, KCl [15]: 16 µM | MIC, NaCl [15]: 32 µM | MIC, Control [15]: 8 µM | MIC [16]: > 64 µM | MBC [17]: 128 µM | MIC [17]: 64 µM | MBC [18]: 128 µM | MIC [18]: 64 µM | MBC [19]: 4 µM | MIC [19]: 2 µM | GM, All [20]: 33.42 µM | TI, All [20]: 7.66 | MBC [21]: 32 µM | MIC [21]: 16 µM | MIC [22]: > 64 µM | GM MBC [23]: 40.32 µM

LRRLRLLRL-NH2 [L12]
GM MIC [1]: 59.26 µM | TI, Gram-negative bacteria [1]: 4.32 | GM MIC [2]: 70.66 µM | TI, Gram-positive bacteria [2]: 3.62 | MBC [3]: 32 µM | MIC [3]: 16 µM | GM MBC [4]: 86.14 µM | MBC [5]: 64 µM | MIC [5]: 32 µM | MBC [6]: 128 µM | MIC [6]: 64 µM | MBC [7]: 64 µM | MIC [7]: 32 µM | MIC, FeCl3 [8]: > 64 µM | MIC, NH4Cl [8]: > 64 µM | MIC, ZnCl2 [8]: > 64 µM | MIC, MgCl2 [8]: > 64 µM | MIC, CaCl2 [8]: > 64 µM | MIC, KCl [8]: > 64 µM | MIC, NaCl [8]: > 64 µM | MIC, Control [8]: > 64 µM | MIC [9]: >64 µM | MIC [10]: > 64 µM | MIC [11]: > 64 µM | MIC [12]: 16 µM | MBC [12]: 32 µM | MIC [13]: >64 µM | MIC [14]: > 64 µM | MIC, FeCl3 [15]: 32 µM | MIC, NH4Cl [15]: 32 µM | MIC, ZnCl2 [15]: 32 µM | MIC, MgCl2 [15]: > 64 µM | MIC, CaCl2 [15]: > 64 µM | MIC, KCl [15]: 32 µM | MIC, NaCl [15]: > 64 µM | MIC, Control [15]: 32 µM | MIC [16]: > 64 µM | MIC [17]: > 64 µM | MIC [18]: > 64 µM | MBC [19]: 32 µM | MIC [19]: 16 µM | GM, All [20]: 64.00 µM | TI, All [20]: 4.00 | MBC [21]: 64 µM | MIC [21]: 32 µM | MIC [22]: > 64 µM | GM MBC [23]: 87.09 µM

From paper PMC7725003, “Systematically Studying the Optimal Amino Acid Distribution Patterns of the Amphiphilic Structure by Using the Ultrashort Amphiphiles” (Frontiers in Microbiology, 2020)
